Biological target: T1, human ERα (Homo sapiens, UniProt P03372)
T1 construct: purified full-length recombinant human ERα (Life Technologies, Grand Island, N.Y.); purchased Life Technologies
T1 sequence (P03372 1-595): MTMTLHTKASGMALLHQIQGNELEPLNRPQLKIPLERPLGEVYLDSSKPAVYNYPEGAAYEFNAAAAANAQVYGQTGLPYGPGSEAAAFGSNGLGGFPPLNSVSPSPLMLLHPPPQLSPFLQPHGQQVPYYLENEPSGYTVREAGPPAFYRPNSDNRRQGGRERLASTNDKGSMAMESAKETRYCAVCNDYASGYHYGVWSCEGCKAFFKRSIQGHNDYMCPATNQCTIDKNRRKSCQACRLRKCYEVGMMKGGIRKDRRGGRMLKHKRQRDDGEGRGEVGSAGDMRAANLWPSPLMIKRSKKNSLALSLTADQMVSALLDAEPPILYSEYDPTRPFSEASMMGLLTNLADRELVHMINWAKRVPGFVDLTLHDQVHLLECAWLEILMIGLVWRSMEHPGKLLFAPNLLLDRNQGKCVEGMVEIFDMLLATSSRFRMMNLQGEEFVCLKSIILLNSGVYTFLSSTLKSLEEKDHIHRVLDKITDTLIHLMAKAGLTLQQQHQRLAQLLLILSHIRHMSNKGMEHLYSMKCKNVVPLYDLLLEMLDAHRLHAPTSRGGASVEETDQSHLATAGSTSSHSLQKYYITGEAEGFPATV
Test: ERα competitive binding assay (recombinant human ERα)
Details: FIG. 5B
Procedure: (§1) Non-specific binding was determined by incubation with an excess of cold estradiol (1 μM). After an overnight incubation at 4° C., 100 μl of cold 50% hydroxyapatite slurry was added to bind the receptor/ligand complex. After 15 minutes, 1 mL of wash buffer (40 mM Tris, 1 mM EDTA, 1 mM EGTA, 100 mM KCl, pH 7.4) was added and the tubes were centrifuged at 4500 rpm for 5 minutes at 4° C. The washing step was repeated twice. The radioactivity of the pellet was extracted by incubation with 1 mL of ethanol for 1 h at room temperature.
as §1, with “A competitive binding assay using a purified full-length recombinant human ERα (Life Technologies, Grand Island, N.Y.). […] Non-specific” for “Non-specific”, “E2” for “cold estradiol”, “μL” for “μl”

**Q.** How did the “relative binding affinity (RBA)” value turn out when `C[C@]12CC[C@@H]3c4ccc(O)cc4CC[C@H]3[C@@H]1C[C@H](Cc1cccc(C(N)=O)c1)[C@@H]2O` [Compound I, 16β-(m-carbamoylbenzyl)estradiol, reference compound] was run?
**A.** 1.5%
